Reference: paper PMC2843756 (European journal of medicinal chemistry, 2010)

How the values were obtained:
[1] = mice, po once a day, 100 mg/kg five days, 2 days rest, 200 mg/kg five days
[2] = system: Mycobacterium vaccae 10670 and Mycobacterium fortuitum B; test: Agar diffusion assay; type: cell-based
[3] = system: panel of nontuberculosis mycobacteria and other bacteria (Gram positive and negative) as well as select strains of yeast; test: MIC against panel of nontuberculosis mycobacteria, other bacteria and yeast; type: cell-based; conditions: all strains of the panel; MIC's equal to negative control
[4] = system: Mycobacterium tuberculosis H37Rv; test: Microplate Alamar Blue Assay; type: cell-based; conditions: for MIC: medium not specified; for anti-TB activity (in words): qualitative statement
[5] = system: Mycobacteria tuberculosis H37Rv; conditions: earlier work of the authors; cited from earlier work
[6] = Metabolic stability in rat liver microsomes; type: in vitro ADME, Sprague-Dawley rat; conditions: in vitro metabolism
[7] = system: VERO cells; test: VERO cytotoxicity assay; conditions: compared with non-methyl analog
[8] = Mycobacterium tuberculosis, H37RV

O=C(OCc1ccccc1)c1coc(-c2ccccc2Cl)n1 [Compound 68, Benzyl 2-(2-chlorophenyl)oxazole-4-carboxylate]
tolerability (body weight, gross appearance and behavior) [1]: well tolerated | zones of inhibition [2]: some zones of inhibition | MIC against panel (in words) [3]: inactive | MIC [4, 8]: < 1 µM

O=C(OCc1ccccc1)c1coc(-c2ccc(F)c([N+](=O)[O-])c2)n1 [Compound 66, Benzyl 2-(4-fluoro-3-nitrophenyl)oxazole-4-carboxylate]
zones of inhibition [2]: some zones of inhibition | MIC against panel (in words) [3]: inactive | MIC [4, 8]: < 1 µM

COC(=O)[C@@H]1COC(c2ccccc2OCc2ccccc2)=N1 [Compound 12]
anti-TB activity (in words) [4]: considerably less active

COC(=O)[C@@H]1COC(c2ccc([N+](=O)[O-])cc2)=N1 [Compound 27]
anti-TB activity (in words) [4]: considerably less active

COc1ccc(-c2nc(C(=O)OCc3ccccc3)c(C)o2)cc1 [Compound 110]
anti-TB activity (in words) [4]: diminished anti-TB activity

O=C(OCc1ccccc1)[C@@H]1COC(c2ccccc2OCc2ccccc2)=N1 [Compound 3, (S)-Benzyl 2-(2-(benzyloxy)phenyl)-4,5-dihydrooxazole-4-carboxylate]
tolerability (body weight, gross appearance and behavior) [1]: well tolerated

mycobactin T
effect on growth of Mycobacteria tuberculosis H37Rv [5]: promotes growth

COc1ccc(CC2=N[C@H](C(=O)OCc3ccccc3)CO2)cc1 [Compound 44]
anti-TB activity (in words) [4]: diminished activity

O=C(OCc1ccccc1)[C@@H]1COC(c2ccc(F)c([N+](=O)[O-])c2)=N1 [Compound 29, (S)-Benzyl 2-(4-fluoro-3-nitrophenyl)-4,5-dihydrooxazole-4-carboxylate]
tolerability (body weight, gross appearance and behavior) [1]: well tolerated | zones of inhibition [2]: some zones of inhibition | MIC against panel (in words) [3]: inactive

O=C(OCc1ccccc1)c1coc(-c2ccc([N+](=O)[O-])cc2F)n1 [Compound 70]
MIC [4, 8]: < 1 µM

O=C(OCc1ccccc1)[C@@H]1COC(Cc2ccccc2)=N1 [Compound 43]
anti-TB activity (in words) [4]: diminished activity

O=C(OCc1ccccc1)c1coc(-c2cncc(-c3ccccc3)c2)n1 [Compound 78]
MIC [4, 8]: < 1 µM

O=C(OCc1ccccc1)[C@@H]1COC(c2ccccc2)=N1 [Compound 15, (S)-Benzyl 4,5-dihydro-2-phenyloxazole-4-carboxylate]
tolerability (body weight, gross appearance and behavior) [1]: well tolerated | zones of inhibition [2]: some zones of inhibition | MIC against panel (in words) [3]: inactive | major metabolite [6]: the corresponding carboxylic acid

O=C(OCc1ccccc1)c1coc(-c2ccccc2)n1 [Compound 65, Benzyl 2-phenyloxazole-4-carboxylate]
tolerability (body weight, gross appearance and behavior) [1]: well tolerated | zones of inhibition [2]: some zones of inhibition | MIC against panel (in words) [3]: inactive | MIC [4, 8]: < 1 µM | MIC [4]: < 0.5 µM

O=C(O)[C@@H]1COC(c2ccccc2O)=N1 [Compound 4]
anti-TB activity (in words) [4]: lost all activity

O=C(OCc1ccccc1)c1coc(-c2cccc(F)c2)n1 [Compound 89]
MIC [4, 8]: < 1 µM

Cc1oc(-c2ccc(F)cc2[N+](=O)[O-])nc1C(=O)OCc1ccccc1 [Compound 111]
anti-TB activity (in words) [4]: diminished anti-TB activity

Cc1oc(-c2ccccc2)nc1C(=O)OCc1ccccc1 [Compound 109]
toxicity in the VERO assay (in words) [7]: greatly increased toxicity | anti-TB activity (in words) [4]: diminished anti-TB activity

O=C(OCc1ccccc1)c1coc(-c2ccccc2OCc2ccccc2)n1 [Compound 63, Benzyl 2-(2-(benzyloxy)phenyl)oxazole-4-carboxylate]
tolerability (body weight, gross appearance and behavior) [1]: well tolerated | zones of inhibition [2]: some zones of inhibition | MIC against panel (in words) [3]: inactive

COc1ccc(-c2nc(C(=O)OCc3ccccc3)co2)cc1 [Compound 60, Benzyl 2-(4-methoxyphenyl)oxazole-4-carboxylate]
tolerability (body weight, gross appearance and behavior) [1]: well tolerated | zones of inhibition [2]: some zones of inhibition | MIC against panel (in words) [3]: inactive

CCCCCCCCCCCCCCCC(=O)N(O)CCCC[C@H](NC(=O)[C@@H]1COC(c2ccccc2O)=N1)C(=O)O[C@@H](C)CC(=O)N[C@H]1CCCCN(O)C1=O [Mycobactin S]
effect on growth of Mycobacteria tuberculosis H37Rv [5]: inhibits the growth

COC(=O)[C@@H]1COC(c2cccc(Cl)c2)=N1 [Compound 19]
anti-TB activity (in words) [4]: considerably less active

CCCCCCCCCCCCCCCC(=O)N(O)CCCC[C@H](NC(=O)[C@@H]1COC(c2ccccc2O)=N1)C(=O)OC[C@H](NC(=O)OC(C)(C)C)C(=O)N[C@H]1CCCCN(O)C1=O [Compound 2]
effect on growth of Mycobacteria tuberculosis H37Rv [5]: potent inhibition of TB growth

O=C(OCc1ccccc1)c1coc(-c2cccc(Cl)c2)n1 [Compound 59]
MIC [4, 8]: < 1 µM
